In patent US20250324971A1, “HERBICIDAL DERIVATIVES” (SYNGENTA CROP PROTECTION AG, priority 2022, published 2025):

Legend:
Format in all cases: in vivo
[1] = system: Ipomoea hederacea (IPOHE); test: Pre-Emergence Test (herbicidal, glasshouse pots); details: evaluated after 13 days, five-point scale
[2] = system: Amaranthus retoflexus (AMARE); test: Pre-Emergence Test (herbicidal, glasshouse pots); details: evaluated after 13 days, five-point scale
[3] = system: Ipomoea hederacea (IPOHE); test: Post-Emergence Test (herbicidal, glasshouse pots); details: evaluated after 13 days
Outline: (§1)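 Scores (1-5, each step a 20% band of plant damage) reflect evaluation 13 days post-spray. Treatment: sown pots, glasshouse at 24° C. day and 16° C. night with 14 hours light, sprayed in g/ha from acetone/water (50:50) plus 0.5% Tween 20, watered twice daily thereafter.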

[4] = system: Amaranthus palmeri (AMAPA); test: Post-Emergence Test (herbicidal, glasshouse pots); details: evaluated after 13 days
Outline: as §1

Setaria faberi (SETFA) [5] = test: Post-Emergence Test (herbicidal, glasshouse pots); details: evaluated after 13 days
Outline: as §1

Zea mays (ZEAMX) [6] = test: Post-Emergence Test (herbicidal, glasshouse pots); details: evaluated after 13 days
Outline: as §1

[7] = system: Amaranthus retoflexus (AMARE); test: Post-Emergence Test (herbicidal, glasshouse pots); details: evaluated after 13 days
Outline: as §1

[8] = system: Echinochloa crus-galli (ECHCG); test: Post-Emergence Test (herbicidal, glasshouse pots); details: evaluated after 13 days
Outline: as §1

[9] = system: Echinochloa crus-galli (ECHCG); test: Pre-Emergence Test (herbicidal, glasshouse pots); details: evaluated after 13 days, five-point scale
Setaria faberi (SETFA) [10] = test: Pre-Emergence Test (herbicidal, glasshouse pots); details: evaluated after 13 days, five-point scale
Zea mays (ZEAMX) [11] = test: Pre-Emergence Test (herbicidal, glasshouse pots); details: evaluated after 13 days, five-point scale
[12] = system: Amaranthus palmeri (AMAPA); test: Pre-Emergence Test (herbicidal, glasshouse pots); details: evaluated after 13 days, five-point scale

Compound	percentage damage caused to the plant, IPHOE ([1]; rate 250 g/ha)	percentage damage caused to the plant, AMARE ([2]; rate 250 g/ha)	Post-Emergence Test IPHOE percentage damage (five-point scale) ([3]; rate 250 g/ha)	Post-Emergence Test AMAPA percentage damage (five-point scale) ([4]; rate 250 g/ha)	Post-Emergence Test SETFA percentage damage (five-point scale) (Setaria faberi (SETFA) [5]; rate 250 g/ha)	Post-Emergence Test ZEAMX percentage damage (five-point scale) (Zea mays (ZEAMX) [6]; rate 250 g/ha)	Post-Emergence Test AMARE percentage damage (five-point scale) ([7]; rate 250 g/ha)	Post-Emergence Test ECHCG percentage damage (five-point scale) ([8]; rate 250 g/ha)	percentage damage caused to the plant, ECHCG ([9]; rate 250 g/ha)	percentage damage caused to the plant, SETFA (Setaria faberi (SETFA) [10]; rate 250 g/ha)	percentage damage caused to the plant, ZEAMX (Zea mays (ZEAMX) [11]; rate 250 g/ha)	percentage damage caused to the plant, AMAPA ([12]; rate 250 g/ha)	also measured
CCn1c(Oc2ccnc(Cl)c2)cc(=O)c(C(=O)O)c1-c1ccc(Cl)c(Cl)c1 [Compound 54, 6-[(2-chloro-4-pyridyl)oxy]-2-(3,4-dichlorophenyl)-1-ethyl-4-oxo-pyridine-3-carboxylic acid]	4 (4=61-80%)	3 (3=41-60%)	4 (4=61-80%)	3 (3=41-60%)	3 (3=41-60%)	4 (4=61-80%)	4 (4=61-80%)	3 (3=41-60%)	4 (4=61-80%)	5 (5=81-100%)	1 (1=0-20%)	1 (1=0-20%)	
CCn1c(Oc2cc(C3CC3)on2)cc(=O)c(C(=O)O)c1-c1ccc(Cl)c(Cl)c1 [Compound 55, 6-(5-cyclopropylisoxazol-3-yl)oxy-2-(3,4-dichlorophenyl)-1-ethyl-4-oxo-pyridine-3-carboxylic acid]	0	1 (1=0-20%)	3 (3=41-60%)	4 (4=61-80%)	2 (2=21-40%)	2 (2=21-40%)	4 (4=61-80%)	2 (2=21-40%)	1 (1=0-20%)	1 (1=0-20%)	0	0	
CCn1c(Oc2cc(C(F)F)n(C)n2)cc(=O)c(C(=O)O)c1-c1ccc(Cl)c(Cl)c1 [Compound 56, 2-(3,4-dichlorophenyl)-6-[5-(difluoromethyl)-1-methyl-pyrazol-3-yl]oxy-1-ethyl-4-oxo-pyridine-3-carboxylic acid]													percentage damage caused to the plant, IPHOE ([1]; rate 62.5 g/ha): 0; percentage damage caused to the plant, AMARE ([2]; rate 62.5 g/ha): 0; Post-Emergence Test IPHOE percentage damage (five-point scale) ([3]; rate 62.5 g/ha): 3 (3=41-60%); Post-Emergence Test AMAPA percentage damage (five-point scale) ([4]; rate 62.5 g/ha): 3 (3=41-60%); Post-Emergence Test SETFA percentage damage (five-point scale) (Setaria faberi (SETFA) [5]; rate 62.5 g/ha): 3 (3=41-60%); Post-Emergence Test ZEAMX percentage damage (five-point scale) (Zea mays (ZEAMX) [6]; rate 62.5 g/ha): 0; Post-Emergence Test AMARE percentage damage (five-point scale) ([7]; rate 62.5 g/ha): 2 (2=21-40%); Post-Emergence Test ECHCG percentage damage (five-point scale) ([8]; rate 62.5 g/ha): 2 (2=21-40%); percentage damage caused to the plant, ECHCG ([9]; rate 62.5 g/ha): 0; percentage damage caused to the plant, SETFA (Setaria faberi (SETFA) [10]; rate 62.5 g/ha): 1 (1=0-20%); percentage damage caused to the plant, ZEAMX (Zea mays (ZEAMX) [11]; rate 62.5 g/ha): 0; percentage damage caused to the plant, AMAPA ([12]; rate 62.5 g/ha): 0
CCn1ccc(Oc2cc(=O)c(C(=O)O)c(-c3ccc(Cl)c(Cl)c3)n2CC)n1 [Compound 57, 2-(3,4-dichlorophenyl)-1-ethyl-6-(1-ethylpyrazol-3-yl)oxy-4-oxo-pyridine-3-carboxylic acid]	4 (4=61-80%)	4 (4=61-80%)	4 (4=61-80%)	4 (4=61-80%)	4 (4=61-80%)	4 (4=61-80%)	4 (4=61-80%)	4 (4=61-80%)	4 (4=61-80%)	5 (5=81-100%)	5 (5=81-100%)	3 (3=41-60%)	
CCn1c(Oc2ccn(C3CC3)n2)cc(=O)c(C(=O)O)c1-c1ccc(Cl)c(Cl)c1 [Compound 58, 6-(1-cyclopropylpyrazol-3-yl)oxy-2-(3,4-dichlorophenyl)-1-ethyl-4-oxo-pyridine-3-carboxylic acid]	5 (5=81-100%)	4 (4=61-80%)	4 (4=61-80%)	3 (3=41-60%)	3 (3=41-60%)	4 (4=61-80%)	4 (4=61-80%)	3 (3=41-60%)	5 (5=81-100%)	5 (5=81-100%)	5 (5=81-100%)	3 (3=41-60%)	
CCn1cc(Oc2cc(=O)c(C(=O)O)c(-c3ccc(Cl)c(Cl)c3)n2CC)cn1 [Compound 59, 2-(3,4-dichlorophenyl)-1-ethyl-6-(1-ethylpyrazol-4-yl)oxy-4-oxo-pyridine-3-carboxylic acid]	4 (4=61-80%)	2 (2=21-40%)	4 (4=61-80%)	3 (3=41-60%)	3 (3=41-60%)	4 (4=61-80%)	4 (4=61-80%)	3 (3=41-60%)	4 (4=61-80%)	5 (5=81-100%)	3 (3=41-60%)	1 (1=0-20%)	
CCn1c(Oc2cc(Cl)n(C)n2)cc(=O)c(C(=O)O)c1-c1ccc(Cl)c(Cl)c1 [Compound 60, 6-(5-chloro-1-methyl-pyrazol-3-yl)oxy-2-(3,4-dichlorophenyl)-1-ethyl-4-oxo-pyridine-3-carboxylic acid]	4 (4=61-80%)	2 (2=21-40%)	4 (4=61-80%)	1 (1=0-20%)	1 (1=0-20%)	3 (3=41-60%)	4 (4=61-80%)	1 (1=0-20%)	1 (1=0-20%)	3 (3=41-60%)	0	0	
C/C=C(\C)COc1cc(=O)c(C(=O)O)c(-c2ccc(Cl)c(Cl)c2)n1CC [Compound 63, 2-(3,4-dichlorophenyl)-1-ethyl-6-[(E)-2-methylbut-2-enoxy]-4-oxo-pyridine-3-carboxylic acid]	2 (2=21-40%)	1 (1=0-20%)	2 (2=21-40%)	1 (1=0-20%)	0	1 (1=0-20%)	2 (2=21-40%)	1 (1=0-20%)	0	0	0	0	
CCn1c(Oc2ccc(C)c(F)c2)cc(=O)c(C(=O)O)c1-c1ccc(C#N)c(Cl)c1 [Compound 73, 2-(3-chloro-4-cyano-phenyl)-1-ethyl-6-(3-fluoro-4-methyl-phenoxy)-4-oxo-pyridine-3-carboxylic acid]	4 (4=61-80%)	1 (1=0-20%)	4 (4=61-80%)	1 (1=0-20%)	3 (3=41-60%)	4 (4=61-80%)	1 (1=0-20%)	4 (4=61-80%)	4 (4=61-80%)	5 (5=81-100%)	2 (2=21-40%)	1 (1=0-20%)	
CCn1c(Oc2ccc(F)c(F)c2)cc(=O)c(C(=O)O)c1-c1ccc(C#N)c(Cl)c1 [Compound 76]	1 (1=0-20%)	2 (2=21-40%)	4 (4=61-80%)	3 (3=41-60%)	4 (4=61-80%)	4 (4=61-80%)	4 (4=61-80%)	3 (3=41-60%)	4 (4=61-80%)	5 (5=81-100%)	5 (5=81-100%)	2 (2=21-40%)	
